Data on five compounds can be found in US20140357594A1, “NEW COMPOUNDS” (GlaxoSmithkline Intellectual Property (No.2) Limited, priority 2011, published 2014).

Molecules are shown by their SMILES.

The target of assay [1] is T1, Catalytic domains of human DNMT 3a/3L enzyme (Homo sapiens, UniProt Q9Y6K1).
T1 construct: Catalytic domains of human DNMT 3a/3L enzyme were produced by Accelagen; purchased Accelagen
Description: DNMT inhibition assay (3H-SAM filter plate scintillation), DNMT 3a/3L. The following applies: Poly(dIdC) DNA 0.002 mg/mL, H3 SAM 500 nM, 30 min pre-incubation without SAM, 37° C. 1 h; read-out: DNMT 3a/3I IC50. The format is biochemical. Here is the method: (§1) Catalytic domains of human DNMT 3a/3L enzyme were produced by Accelagen. Human full-length DNMT1 enzyme purchased from BPS Biosciences. Poly(dldC) DNA (Sigma) was used at 0.002 mg/mL. H3 SAM (Perkin Elmer) was used at 500 nM. DNA, DNMT enzyme, and inhibitors were mixed with assay buffer (20 mM Tris pH8, 5% glycerol, 1 mM EDTA, 100 μg/mL BSA, 1 mM DTT, 50 mM NaCl) and pre-incubated without SAM for 30 min. H3 SAM was then added to initiate the methylation reaction which continues at 37° C. for 1 h. Reaction mixture was then transferred to a filter plate (Millipore Multiscreen HTS DE), then washed with 50 mM H2PO4 and 95% Ethanol. Scintillation counts were measured on the Perkin Elmer Microbeta scintillation counter.

For assay [2], the target named is T2, Human full-length DNMT1 enzyme (Homo sapiens, UniProt P26358).
T2 construct: Human full-length DNMT1 enzyme purchased from BPS Biosciences; purchased BPS Biosciences
Description: DNMT inhibition assay (3H-SAM filter plate scintillation), DNMT1. The following applies: Poly(dIdC) DNA 0.002 mg/mL, H3 SAM 500 nM, 30 min pre-incubation without SAM, 37° C. 1 h. Type of assay: biochemical. On the procedure:
as §1

T1 sequence (Q9Y6K1 634-912 limits assumed): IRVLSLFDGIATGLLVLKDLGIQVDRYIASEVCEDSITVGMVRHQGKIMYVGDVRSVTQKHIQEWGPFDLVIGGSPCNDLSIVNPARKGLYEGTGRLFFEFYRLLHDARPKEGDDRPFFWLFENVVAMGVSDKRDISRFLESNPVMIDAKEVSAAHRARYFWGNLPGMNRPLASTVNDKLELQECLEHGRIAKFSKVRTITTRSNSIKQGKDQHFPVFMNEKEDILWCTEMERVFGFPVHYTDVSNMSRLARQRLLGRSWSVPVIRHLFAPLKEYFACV
T1 sequence (Q9UJW3 178-386 partner limits assumed): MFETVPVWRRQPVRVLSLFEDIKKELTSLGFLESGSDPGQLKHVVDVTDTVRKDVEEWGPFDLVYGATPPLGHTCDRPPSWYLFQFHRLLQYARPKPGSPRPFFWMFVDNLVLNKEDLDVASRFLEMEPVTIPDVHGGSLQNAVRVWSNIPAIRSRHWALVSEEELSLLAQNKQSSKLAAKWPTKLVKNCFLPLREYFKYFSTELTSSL
T2 sequence (P26358 whole entry): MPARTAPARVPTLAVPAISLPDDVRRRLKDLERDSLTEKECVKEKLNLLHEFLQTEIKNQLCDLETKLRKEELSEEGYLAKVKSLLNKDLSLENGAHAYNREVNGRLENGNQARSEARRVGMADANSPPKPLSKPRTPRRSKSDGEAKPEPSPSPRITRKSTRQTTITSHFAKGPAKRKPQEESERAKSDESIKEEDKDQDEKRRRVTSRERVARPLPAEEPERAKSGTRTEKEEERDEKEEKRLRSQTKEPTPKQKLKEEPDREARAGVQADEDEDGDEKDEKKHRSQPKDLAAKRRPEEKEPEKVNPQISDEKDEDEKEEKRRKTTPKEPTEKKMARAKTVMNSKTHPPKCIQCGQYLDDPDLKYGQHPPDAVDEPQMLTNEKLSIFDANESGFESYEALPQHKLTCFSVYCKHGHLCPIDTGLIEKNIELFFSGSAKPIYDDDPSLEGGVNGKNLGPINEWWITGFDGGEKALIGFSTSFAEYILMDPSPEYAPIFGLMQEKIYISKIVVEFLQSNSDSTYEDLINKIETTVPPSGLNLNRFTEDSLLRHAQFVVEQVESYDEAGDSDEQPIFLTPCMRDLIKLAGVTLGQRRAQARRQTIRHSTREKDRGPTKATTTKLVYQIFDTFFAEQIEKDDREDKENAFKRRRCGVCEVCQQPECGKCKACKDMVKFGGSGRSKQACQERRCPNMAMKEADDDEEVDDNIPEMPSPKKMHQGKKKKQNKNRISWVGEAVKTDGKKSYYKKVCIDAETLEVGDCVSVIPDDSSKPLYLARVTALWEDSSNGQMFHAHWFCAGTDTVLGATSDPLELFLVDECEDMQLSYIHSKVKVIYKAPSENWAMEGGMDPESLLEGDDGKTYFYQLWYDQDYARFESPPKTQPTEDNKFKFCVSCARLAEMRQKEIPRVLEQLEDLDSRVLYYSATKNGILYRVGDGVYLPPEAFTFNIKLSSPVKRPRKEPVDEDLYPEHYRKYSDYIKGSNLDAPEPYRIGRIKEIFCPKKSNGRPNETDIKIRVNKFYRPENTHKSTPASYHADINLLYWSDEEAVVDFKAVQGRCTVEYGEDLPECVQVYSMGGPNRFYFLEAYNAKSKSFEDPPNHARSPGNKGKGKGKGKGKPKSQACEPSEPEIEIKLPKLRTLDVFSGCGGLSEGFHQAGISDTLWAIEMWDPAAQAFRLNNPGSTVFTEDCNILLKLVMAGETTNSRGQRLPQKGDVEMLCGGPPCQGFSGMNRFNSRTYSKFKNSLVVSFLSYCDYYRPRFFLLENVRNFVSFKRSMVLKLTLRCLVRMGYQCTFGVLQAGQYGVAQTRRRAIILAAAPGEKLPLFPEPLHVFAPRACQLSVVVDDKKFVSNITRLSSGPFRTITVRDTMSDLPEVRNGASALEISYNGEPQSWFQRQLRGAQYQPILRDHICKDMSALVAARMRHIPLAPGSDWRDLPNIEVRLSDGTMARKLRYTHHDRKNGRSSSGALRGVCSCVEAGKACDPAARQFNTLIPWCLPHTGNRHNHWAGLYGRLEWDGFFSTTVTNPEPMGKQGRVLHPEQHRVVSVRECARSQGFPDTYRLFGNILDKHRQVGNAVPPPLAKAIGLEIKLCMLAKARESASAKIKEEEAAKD

Regarding `Nc1ncnc2c1ncn2[C@H]1O[C@@H](CSCCNc2ccncn2)[C@H](O)[C@@H]1O` [Example 3, (2S,3S,4R,5R)-2-(6-Amino-9H-purin-9-yl)-5-(((2-(pyrimidin-4-ylamino)ethyl)thio)methyl)tetrahydrofuran-3,4-diol], the IC50 in assay [1] was 26 µM. Still for that read-out and setting: to `Nc1ncnc2c1ncn2[C@H]1O[C@@H](CSCCNc2ccnc(Cl)n2)[C@H](O)[C@@H]1O` [Example 2, (2S,3S,4R,5R)-2-(6-Amino-9H-purin-9-yl)-5-(((2-((2-chloropyrimidin-4-yl)amino)ethyl)thio)methyl)tetrahydrofuran-3,4-diol] belongs 95 µM. In the case of `C=CC(=O)NCCSC[C@@H]1O[C@H](n2cnc3c(N)ncnc32)[C@@H](O)[C@H]1O` [Example 5, N-(2-((((2R,3R,4S,5S)-5-(6-Amino-9H-purin-9-yl)-3,4-di hydroxytetrahydrofuran-2-yl)methyl)thio)ethyl)acrylamide], the IC50 in assay [2] was determined as 49 µM; in assay [1], 24 µM.

For `Nc1ncnc2c1ncn2[C@H]1O[C@@H](CSCCNc2nccc(Cl)n2)[C@H](O)[C@@H]1O` [Example 1, (2S,3S,4R,5R)-2-(6-Amino-9H-purin-9-yl)-5-(((2-((4-chloropyrimidin-2-yl)amino)ethyl)thio)methyl)tetrahydrofuran-3,4-diol], the IC50 in assay [2] is over 300 µM; in assay [1], 3 µM. In the same order, the values of `Nc1ncnc2c1ncn2[C@H]1O[C@@H](CSCCNc2cc(Cl)ncn2)[C@H](O)[C@@H]1O` [Example 4] are 48 µM and 60 µM.
